The target in data set [1] is FABP4 (Homo sapiens, UniProt P15090). The experiment in a line: FABP4 inhibition. The following applies: Fig. S5.
In data set [2] the test system is formalin-induced mouse models. The note with it: cited from earlier work.
Data set [3] concerns the target T1, FABP7 (Homo sapiens, UniProt O15540). Put plainly: Direct ligand binding assay of fluorescent probes, FABP7.
Data set [4] in a line: Dynamic light scattering, colloidal aggregation. Format: physicochemical. The note with it: 20 μM in PBS, 24°C.
Data set [5] deals with T2, FABP3 (Homo sapiens, UniProt P05413). Put plainly: Direct ligand binding assay of fluorescent probes, FABP3.
The target of data set [6] is T3, FABP5 (Homo sapiens, UniProt Q01469). The experiment in a line: Direct ligand binding assay of fluorescent probes, FABP5.
For data set [7], the target named is T2, FABP3. The note with it: read-out: Kd towards FABP3; determined in a previous study; cited from earlier work.
For data set [8], the target named is T3, FABP5. The note with it: read-out: Kd towards FABP5; determined in a previous study; cited from earlier work.
Data set [9] has as its target T1, FABP7. The following applies: read-out: Kd towards FABP7; determined in a previous study; cited from earlier work.

We go through 8 molecules from article PMC5999033 (European journal of medicinal chemistry, 2018).

Like-named read-outs stand apart in the source and are kept apart here.

FABP4, sequence (P15090 whole entry): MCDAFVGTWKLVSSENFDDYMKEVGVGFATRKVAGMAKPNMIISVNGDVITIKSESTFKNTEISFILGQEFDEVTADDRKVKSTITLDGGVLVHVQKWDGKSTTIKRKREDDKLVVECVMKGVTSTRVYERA
T2 sequence (P05413 whole entry): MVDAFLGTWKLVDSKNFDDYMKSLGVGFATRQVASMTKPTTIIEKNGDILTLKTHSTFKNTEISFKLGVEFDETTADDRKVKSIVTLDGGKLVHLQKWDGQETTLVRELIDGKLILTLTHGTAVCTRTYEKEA
T1 sequence (O15540 whole entry): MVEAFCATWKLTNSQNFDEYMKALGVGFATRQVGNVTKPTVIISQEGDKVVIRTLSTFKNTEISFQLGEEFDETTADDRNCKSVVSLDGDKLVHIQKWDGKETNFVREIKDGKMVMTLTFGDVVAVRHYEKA
T3 sequence (Q01469 whole entry): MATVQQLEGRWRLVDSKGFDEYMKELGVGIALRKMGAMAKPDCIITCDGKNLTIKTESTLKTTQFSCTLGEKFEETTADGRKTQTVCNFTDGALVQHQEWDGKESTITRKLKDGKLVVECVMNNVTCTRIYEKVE

On to `C#Cc1cccc(OC(=O)[C@H]2[C@@H](c3ccccc3)[C@H](C(=O)O)[C@@H]2c2ccccc2)c1` (racemic) [Compound 3f, 1-(3-Ethynylphenyl) α-3-hydroxycarbonyl-2,4-diphenylcyclobutane-1-carboxylate], for which the FABP4 inhibition entry in data set [1] is “do not appreciably inhibit FABP4”.
Take `COc1ccccc1[C@H]1[C@H](C(=O)O)[C@H](c2ccccc2OC)[C@H]1C(=O)Oc1cccc2ccccc12` (racemic) [Compound 4b, 1-Naphthyl α-3-hydroxycarbonyl-2,4-di(2-methoxylphenyl)cyclobutane-1-carboxylate]: the FABP4 inhibition entry in data set [1] was “do not appreciably inhibit FABP4”.
For `COc1ccccc1[C@H]1[C@H](C(=O)O)[C@H](c2ccccc2OC)[C@H]1C(=O)OCC1c2ccccc2-c2ccccc21` (racemic) [Compound 4j, 9-Fluorenylmethyl α-3-hydroxycarbonyl-2,4-di(2-methoxylphenyl)cyclobutane-1-carboxylate], in data set [1], the FABP4 inhibition result was “do not appreciably inhibit FABP4”.
Turning to `COc1cc([C@H]2[C@H](C(=O)O[C@@H]3C[C@@H]4[C@@H](CN(C)C[C@@H]4C)[C@@H]3C)[C@H](c3ccc(O)c(OC)c3)[C@H]2C(=O)O[C@@H]2C[C@@H]3[C@@H](CN(C)C[C@@H]3C)[C@@H]2C)ccc1O` [(-)-incarvillateine], the “analgesic and anti-inflammatory effects” value in data set [2] was “potent analgesic and anti-inflammatory effects”.
In [3], `O=S(=O)(O)c1cccc2cccc(Nc3ccccc3)c12` [ANS, 1-Anilinonaphthalene-8-sulfonic Acid] yielded an equilibrium dissociation constant (Kd) of 1010 nM.
As for `O=C(O)C1C(c2ccccc2)C(C(=O)O[C@@H]2CCCC[C@H]2c2ccccc2)C1c1ccccc1` (stereo partly drawn) [Compound 3l, 1-[(1R,2S)-2-Phenylcyclohexyl] α-3-hydroxycarbonyl-2,4-diphenylcyclobutane-1-carboxylate], in [4], the “colloidal aggregation by DLS” value is recorded as “no evidence of colloidal aggregation”.
On to `CN(C)c1cccc2c(S(=O)(=O)NCCCCCCCCCCC(=O)O)cccc12` [DAUDA, 11-[5-(Dimethylamino)-1-naphthalenesulfonyl-amino]undecanoic acid], for which the Kd was 2040 nM in [5] and 2560 nM in [6].
As for `CCCCCCC(CCCCCCCCCCC(=O)O)N(C)c1ccc([N+](=O)[O-])c2nonc12` (centres unmarked) [NBD-stearate, 12-N-methyl-(7-nitrobenz-2-oxa-1,3-diazo)aminostearic acid], the equilibrium dissociation constant (Kd) in [7] is 18 nM; in data set [8] it was 160 nM; in data set [9], 220 nM.
